Laboratory results reported in ChEMBL document CHEMBL1131947, “Syntheses and biological activities of bis(3-indolyl)thiazoles, analogues of marine bis(indole)alkaloid nortopsentins” (1999).

Key:
Type in all cases: functional
[1] = test system: K562; experiment: In vitro growth inhibitory activity against human K-562 cancer cell line
[2] = test system: MOLT-4; experiment: In vitro growth inhibitory activity against human MOLT-4 cancer cell line
[3] = test system: MDA-N; experiment: In vitro growth inhibitory activity against human MDA-N cancer MDA-N cell line
[4] = test system: NCI-H23; experiment: In vitro growth inhibitory activity against human NCI-H23 cancer cell line
[5] = test system: SR; experiment: In vitro growth inhibitory activity against human SR cancer cell line
[6] = test system: HCT-15; experiment: In vitro growth inhibitory activity against human HCT-15 cancer cell line
[7] = test system: SF-295; experiment: In vitro growth inhibitory activity against human SF-295 cancer cell line
[8] = test system: MCF7; experiment: In vitro growth inhibitory activity against human MCF-7 cancer cell line

GI50 [1] [µM] | GI50 [2] [µM] | GI50 [4] [µM] | GI50 [6] [µM] | GI50 [8] [µM] | Structure (SMILES) | GI50 [3] [µM] | GI50 [5] [µM] | GI50 [7] [µM]
5.61 | 31.2 | 25.8 | 17.8 | 27.2 | Brc1ccc2c(-c3nc(-c4c[nH]c5ccccc45)cs3)c[nH]c2c1 | 31.5 | 12.2 | 9.23
18.8 | 19.9 | 14.5 | 15.2 | 16.7 | Brc1ccc2c(-c3csc(-c4c[nH]c5ccccc45)n3)c[nH]c2c1 | 19.2 | 6.36 | 14.6
3.27 | 5.31 | > 100 | > 100 | > 100 | c1ccc2c(-c3csc(-c4c[nH]c5ccccc45)n3)c[nH]c2c1 | 83 | 1.77 | 33.6
4.69 | 5.8 | 14.1 | 8.5 | 6.46 | Brc1ccc2c(-c3csc(-c4c[nH]c5cc(Br)ccc45)n3)c[nH]c2c1 | 2.94 | 3.4 | 4.81
